Data: patent US20220402901A1 (Bial - R&D Investments, S.A., priority 2019, published 2022)
Converted amounts (≈) assume the structure as drawn.

Assays:
[1] = molecular target: T1, Human acid ceramidase (hACR) (Homo sapiens, UniProt Q13510); assay: Acid ceramidase biochemical fluorescent assay (cell lysates overexpressing acid ceramidase, substrate Rbm14-12); conditions: 10 μg lysate protein, 1 hr preincubation at RT, pH 4.5, Rbm14-12 6.3 μM
T1 construct: expressed in transfected cells; lysates of cells overexpressing acid ceramidase
T1 sequence (Q13510 22-395): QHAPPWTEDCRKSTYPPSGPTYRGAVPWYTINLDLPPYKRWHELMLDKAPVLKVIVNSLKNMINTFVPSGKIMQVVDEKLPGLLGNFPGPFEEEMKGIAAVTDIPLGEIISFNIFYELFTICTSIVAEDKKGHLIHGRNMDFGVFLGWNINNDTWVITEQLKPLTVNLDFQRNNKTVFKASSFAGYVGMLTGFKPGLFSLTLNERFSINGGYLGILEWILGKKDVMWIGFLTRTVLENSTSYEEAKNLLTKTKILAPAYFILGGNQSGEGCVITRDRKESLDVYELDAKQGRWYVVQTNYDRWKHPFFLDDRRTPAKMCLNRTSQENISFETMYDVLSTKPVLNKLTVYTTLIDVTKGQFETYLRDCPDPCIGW
Procedure: The ability of exemplary compounds to inhibit acid ceramidase was measured.
Cell lysates overexpressing acid ceramidase were used as the enzyme source for compound potency determination in a biochemical fluorescent assay. Briefly, compounds were preincubated with 10 μg protein of cell lysates in a dose-response manner for 1 hr at RT in the assay buffer containing 25 mM NaAC and 100 mM NaCl, pH 4.5. The reaction was initiated by the addition of substrate Rbm14-12 at a final concentration of 6.3 μM. The reaction was run at RT for 1 hr before it was stopped by the addition of the stopping buffer containing 20% methanol (v/v), 1 mg/ml NaIO4, 0.1 M glycine, pH 10.6. The samples were incubated with the stopping buffer at RT for 1 hr to allow the fluorescent product to be formed. Finally the plate was read with SpectraMax i3 plate reader (Molecular Devices) at ex360 nm and em446 nm. Data were collected and used to determine the IC50 values of compounds by curve fitting to the four-parameter inhibition equation.
The symbol “A” indicates inhibition of less than 0.2 μM; the symbol “B” indicates inhibition in the range of 0.2 μM up to 1 μM; and the symbol “C” indicates inhibition of greater than 1 μM.

[2] = Compound solubility in water; assay type: physicochemical; conditions: read-out: Solubility in H2O

| IC50 [1] [nM] | solubility [2] [µM] | SMILES |
| --- | --- | --- |
| 200 to 1000 | 3.5 (≈ 1.53 µg/mL) | Cn1c(=O)oc2cc(N3CCN(C(=O)NCCOCc4ccccc4)C(C)(C)C3)ccc21 [Example 57, N-(2-Benzyloxyethyl)-2,2-dimethyl-4-(3-methyl-2-oxo-1,3-benzoxazol-6-yl)piperazine-1-carboxamide] |
| < 200 | 0.3 (≈ 0.12 µg/mL) | Cn1c(=O)oc2cc(C3CCN(C(=O)NCCCCC4CC4)C(C)(C)C3)ccc21 (stereo not shown) [Example 31, N-(4-Cyclopropylbutyl)-2,2-dimethyl-4-(3-methyl-2-oxo-1,3-benzoxazol-6-yl)piperidine-1-carboxamide] |
| > 1000 | – | O=C(NCCCCc1ccccc1)N1CCC2(CC1)CN(c1ccc3[nH]c(=O)oc3c1)C2 [Example 69, 2-(2-Oxo-3H-1,3-benzoxazol-6-yl)-N-(4-phenylbutyl)-2,7-diazaspiro[3.5]nonane-7-carboxamide] |
| > 1000 | – | O=C(NCCCCc1ccccc1)N1CCCCC1c1ccc2[nH]c(=O)oc2c1 (stereo not shown) [Example 36, 2-(2-Oxo-3H-1,3-benzoxazol-6-yl)-N-(4-phenylbutyl)piperidine-1-carboxamide] |
| > 1000 | – | CCCCCNC(=O)N1CCCC(c2ccc3c(c2)oc(=O)n3C)C1 (stereo not shown) [Example 13, 3-(3-Methy-2-oxo-1,3-benzoxazol-6-yl)-N-pentyl-piperidine-1-carboxamide] |
| 200 to 1000 | – | Cn1c(=O)oc2cc(C3=CCCN(C(=O)NCCCCc4ccccc4)C3)ccc21 [Example 15, 5-(3-methyl-2-oxo-1,3-benzoxazol-6-yl)-N-(4-phenylbutyl)-3,6-dihydro-2H-pyridine-1-carboxamide] |
| 200 to 1000 | – | Cn1c(=O)oc2cc(N3CC4(COC4)N(C(=O)NCCCCc4ccccc4)CC3=O)ccc21 [Example 62, 8-(3-Methyl-2-oxo-1,3-benzoxazol-6-yl)-7-oxo-N-(4-phenylbutyl)-2-oxa-5,8-diazaspiro[3.5]nonane-5-carboxamide] |
| > 1000 | – | Cn1c(=O)oc2cc(C3CCN(C(=O)NCCCCc4ccccc4)C4(COC4)C3)ccc21 (stereo not shown) [Example 34, 8-(3-Methyl-2-oxo-1,3-benzoxazol-6-yl)-N-(4-phenylbutyl)-2-oxa-5-azaspiro[3.5]nonane-5-carboxamide] |
| > 1000 | – | O=C(NCCCCc1ccccc1)N1CCCC(c2ccc3[nH]c(=O)oc3c2)C1 (stereo not shown) [Example 11, 3-(2-Oxo-3H-1,3-benzoxazol-6-yl)-N-(4-phenylbutyl)piperidine-1-carboxamide] |
| > 1000 | – | COCCCNC(=O)N1CCC(c2ccc3c(c2)oc(=O)n3C)CC1(C)C (stereo not shown) [Example 30, N-(3-methoxypropyl)-2,2-dimethyl-4-(3-methyl-2-oxo-1,3-benzoxazol-6-yl)piperidine-1-carboxamide] |
| > 1000 | – | Cn1c(=O)oc2cc(N3CCC4(CC3)CN(C(=O)NCCCCc3ccccc3)C4)ccc21 [Example 68, 7-(3-methyl-2-oxo-1,3-benzoxazol-6-yl)-N-(4-phenylbutyl)-2,7-diazaspiro[3.5]nonane-2-carboxamide] |
| > 1000 | – | CCOCCNC(=O)N1CCCC(c2ccc3c(c2)oc(=O)n3C)C1 (stereo not shown) [Example 14, N-(2-Ethoxyethyl)-3-(3-methyl-2-oxo-1,3-benzoxazol-6-yl)piperidine-1-carboxamide] |
| > 1000 | – | Cn1c(=O)oc2cc(C3CCN(C(=O)NCCC4CC4)CC3)ccc21 [Example 4, N-(2-Cyclopropylethyl)-4-(3-methyl-2-oxo-1,3-benzoxazol-6-yl)piperidine-1-carboxamide] |
| > 1000 | – | Cn1c(=O)oc2cc(C3CCN(C(=O)NCCCCc4ccccc4)CC3)ccc21 [Example 2, 4-(3-Methyl-2-oxo-1,3-benzoxazol-6-yl)-N-(4-phenylbutyl)piperidine-1-carboxamide] |
| > 1000 | – | Cn1c(=O)oc2cc(N3CCC4(CCN(C(=O)NCCCCc5ccccc5)CC4)CC3)ccc21 [Example 71, 9-(3-Methyl-2-oxo-1,3-benzoxazol-6-yl)-N-(4-phenylbutyl)-3,9-diazaspiro[5.5]undecane-3-carboxamide] |
| > 1000 | – | Cn1c(=O)oc2cc(C3COCCN3C(=O)NCCCCc3ccccc3)ccc21 (stereo not shown) [Example 38, 3-(3-Methyl-2-oxo-1,3-benzoxazol-6-yl)-N-(4-phenylbutyl)morpholine-4-carboxamide] |

| IC50 [1] [nM] | solubility [2] [µM] | SMILES |
| --- | --- | --- |
| 200 to 1000 | – | C[C@@H]1CC(c2ccc3c(c2)oc(=O)n3C)CCN1C(=O)NCCc1ccccc1 (mixture of isomers) [Example 18, (2R)-2-Methyl-4-(3-methyl-2-oxo-1,3-benzoxazol-6-yl)-N-(2-phenylethyl)piperidine-1-carboxamide] |
| > 1000 | – | CCOCCNC(=O)N1CCN(c2ccc3c(c2)oc(=O)n3C)CC1(C)C [Example 55, N-(2-Ethoxyethyl)-2,2-dimethyl-4-(3-methyl-2-oxo-1,3-benzoxazol-6-yl)piperazine-1 carboxamide] |
| < 200 | – | C[C@@H]1CC(c2ccc3c(c2)oc(=O)n3C)CCN1C(=O)NCCCCc1ccccc1 (mixture of isomers) [Example 17, (2R)-2-Methyl-4-(3-methyl-2-oxo-1,3-benzoxazol-6-yl)-N-(4-phenylbutyl)piperidine-1-carboxamide] |
| < 200 | – | CC1(C)CC(c2ccc3[nH]c(=O)oc3c2)CCN1C(=O)NCCCCc1ccccc1 (stereo not shown) [Example 23, 2,2-Dimethyl-4-(2-oxo-3H-1,3-benzoxazol-6-yl)-N-(4-phenylbutyl)piperidine-1-carboxamide] |
| > 1000 | – | COCCCNC(=O)N1CCN(c2ccc3c(c2)oc(=O)n3C)CC1(C)C [Example 56, N-(3-Methoxypropyl)-2,2-dimethyl-4-(3-methyl-2-oxo-1,3-benzoxazol-6-yl)piperazine-1-carboxamide] |
| < 200 | – | Cn1c(=O)oc2cc(N3C[C@H]4CN(C(=O)NCCCCc5ccccc5)C[C@H]4C3)ccc21 [Example 66, (3aS,6aR)- and (3aR,6aS)-2-(3-Methyl-2-oxo-1,3-benzoxazol-6-yl)-N-(4-phenylbutyl)-1,3,3a,4,6,6a-hexahydropyrrolo[3,4-c]pyrrole-5-carboxamide] |
| 200 to 1000 | – | C[C@H]1CN(c2ccc3c(c2)oc(=O)n3C)CCN1C(=O)NCCCCc1ccccc1 [Example 49, (2S)-2-Methyl-4-(3-methyl-2-oxo-1,3-benzoxazol-6-yl)-N-(4-phenylbutyl)piperazine-1-carboxamide] |
| > 1000 | – | Cn1c(=O)oc2cc(N3CC4(CCN(C(=O)NCCCCc5ccccc5)CC4)C3)ccc21 [Example 70, 2-(3-Methyl-2-oxo-1,3-benzoxazol-6-yl)-N-(4-phenylbutyl)-2,7-diazaspiro[3.5]nonane-7-carboxamide] |
| > 1000 | – | CC(C)CNC(=O)N1CCC(c2ccc3c(c2)oc(=O)n3C)C[C@H]1C (mixture of isomers) [Example 19, N-iso-Butyl (2R)-methyl-4-(3-methyl-2-oxo-1,3-benzoxazol-6-yl)piperidine-1-carboxamide] |
| < 200 | – | CN(C)CCn1c(=O)oc2cc(C3CCN(C(=O)NCCCCc4ccccc4)C(C)(C)C3)ccc21 (stereo not shown) [Example 32, 4-[3-[2-(Dimethylamino)ethyl]-2-oxo-1,3-benzoxazol-6-yl]-2,2-dimethyl-N-(4-phenylbutyl)piperidine-1-carboxamide] |
| > 1000 | – | O=C(NCCCCc1ccccc1)N1CC2(CCN(c3ccc4[nH]c(=O)oc4c3)CC2)C1 [Example 67, 7-(2-Oxo-3H-1,3-benzoxazol-6-yl)-N-(4-phenylbutyl)-2,7-diazaspiro[3.5]nonane-2-carboxamide] |
| > 1000 | – | Cn1c(=O)oc2cc(C3CCN(C(=O)NC4CCCCC4)CC3)ccc21 [Example 5, N-Cyclohexyl-4-(3-methyl-2-oxo-1,3-benzoxazol-6-yl)piperidine-1-carboxamide] |
| > 1000 | – | Cn1c(=O)oc2cc(N3CCN(C(=O)NCCCCc4ccccc4)C4(CC4)C3)ccc21 [Example 60, 7-(3-Methyl-2-oxo-1,3-benzoxazol-6-yl)-N-(4-phenylbutyl)-4,7-diazaspiro[2.5]octane-4-carboxamide] |
| > 1000 | – | O=C(NCCCCc1ccccc1)N1CCN(c2ccc3[nH]c(=O)oc3c2)CC1 [Example 45, 4-(2-Oxo-3H-1,3-benzoxazol-6-yl)-N-(4-phenylbutyl)piperazine-1-carboxamide] |
| > 1000 | – | Cn1c(=O)oc2cc(C3CCCN3C(=O)NCCCCc3ccccc3)ccc21 (stereo not shown) [Example 44, 2-(3-Methyl-2-oxo-1,3-benzoxazol-6-yl)-N-(4-phenylbutyl)pyrrolidine-1-carboxamide] |
| > 1000 | – | Cn1c(=O)oc2cc(N3CC4CCC(C3)N4C(=O)NCCCCc3ccccc3)ccc21 [Example 61, 3-(3-Methyl-2-oxo-1,3-benzoxazol-6-yl)-N-(4-phenylbutyl)-3,8-diazabicyclo[3.2.1]octane-8-carboxamide] |
